Measurements from patent US6693128B2, “Substituted dicinnamoylquinides and their use in augmentation of adenonsine function” (Vanderbilt University, priority 2001, dated 2004).

How the values were obtained:
[1] = target: T1, human adenosine transporter (Homo sapiens, UniProt Q99808); assay: Displacement of [3H]NBTI binding in U-937 cell homogenates; conditions: mean ± SEM; for Ki: [3H]NBTI 2-4 nM, 50 mM TRIS pH 7.5, 4° C., 1.5 h, Cheng-Prusoff, read-out: Affinity (Ki μM); for Hill slope: log-logit analysis of competition binding data
T1 construct: homogenates of U-937 cell culture (American Tissue Culture Compository), expressing the human (es) transporter; endogenous in cells; host or cells: U-937 (human) cell membrane homogenates
T1 sequence (Q99808 1-456): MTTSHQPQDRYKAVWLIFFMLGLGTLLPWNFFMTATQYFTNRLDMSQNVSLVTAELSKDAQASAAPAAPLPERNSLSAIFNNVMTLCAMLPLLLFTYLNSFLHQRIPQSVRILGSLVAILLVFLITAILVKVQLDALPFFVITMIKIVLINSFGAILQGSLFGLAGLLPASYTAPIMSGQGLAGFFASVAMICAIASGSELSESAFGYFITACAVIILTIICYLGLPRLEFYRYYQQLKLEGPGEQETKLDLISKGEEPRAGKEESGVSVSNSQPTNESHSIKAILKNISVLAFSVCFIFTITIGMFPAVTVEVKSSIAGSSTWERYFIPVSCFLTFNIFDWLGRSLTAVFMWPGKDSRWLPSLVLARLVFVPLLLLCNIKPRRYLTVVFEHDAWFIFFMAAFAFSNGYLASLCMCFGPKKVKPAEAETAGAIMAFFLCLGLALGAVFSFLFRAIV
Procedure: Neurochem 39, 184-191 (1982), incorporated herein by reference. The cell membranes in final concentration of 0.03 mg protein/mL are incubated with [^3H]NBTI at 2-4 nM concentration in 50 mM TRIS buffer (pH 7.5) at 4° C. for 1.5 h in a total volume of 1.0 mL. Nonspecific binding is defined with 10 μM NBTI. Each determination is carried out in triplicate. Bound and free [^3H]NBTI are separated by vacuum filtration through fiberglass filters (Schleicher & Schuell, Keene, N.H.) that are presoaked with 0.3% polyethylenimine for 10 min, using a Brandel […] cell harvester. The filters are washed three times for 10 s with ice-cold 50 mM TRIS buffer and placed in 10 mL scintillation fluid (Cytoscint, ICN). Beta spectrometry is performed using a Beckman […] instrument at 47% counting efficiency. IC50 values and Hill slopes (nH) are calculated from log-logit analysis of competition binding data. Ki values of the competing ligand are calculated from IC50 values using the Cheng-Prusoff equation, Ki=IC50/(1+L/KD) […] Data are expressed as mean±standard error of the mean (SEM).

human (es) transporter = target: T2, human (es) transporter (Homo sapiens, UniProt Q99808); assay: Inhibition of [3H]adenosine transport in homogenates of U-937 cell culture; assay type: biochemical; conditions: 10 μM [3H]adenosine; U-937 cell homogenates; HEPES buffer, 37° C., 30 min; read-out: inhibitory constant Ki, transport of [3H]adenosine
T2 construct: homogenates of U-937 cell culture (American Tissue Culture Compository), expressing the human (es) transporter; endogenous in cells; host or cells: U-937 (human) cell membrane homogenates
T2 sequence (Q99808 1-456): T1 sequence (Q99808 1-456)
Procedure: Inhibition of [^3H]adenosine transport in homogenates of U-937 cell culture (American Tissue Culture Compository), expressing the human (es) transporter is performed according to Gu et al, J. Neurochem 67, 972-977 (1996), which is incorporated herein by reference. Rate of transport is determined in HEPES buffer at 37° C. for 30 min (with choline replacing sodium). Full displacement curves for the adenosine transporter are obtained by using 8 concentrations of each compound, increasing by a factor of 2 and ranging from 0.25 μM-32 μM. Nonspecific transport is defined with 1 μM NBTI ((S)-(4-nitrobenzyl)-6-thioinosine). Cell cultures are grown in high glucose Dulbecco's modified Eagle's medium supplemented with NaHCO3 (40 mM), 10% fetal bovine serum (Gibco), 400 mg/L geneticin, and 0.1 mM hypoxanthine.
Briefly, the cells are cultured at 37° C. under a CO2/air (5/95, v/v) in tissue culture flasks (75 cm^2, Falcon). When reaching confluency (70-80%), cells are trypsinized and harvested by centrifugation. Harvested cells are re-suspended in 50 mM TRIS buffer at 4° C. (0.1 mg/mL), the cell membranes are disrupted by Polytron homogenization (12,500 rpm for 25 s), and the suspension is centrifuged at 30,000×g for 60 min. The supernatent is discarded and remaining the pellet is resuspended in 50 mM TRIS buffer to 0.2 mg-0.5 mg protein/mL and frozen at −80° C. until used. […]

Compound | melting point [°C] | Ki [1] [µM] | Hill slope [1] | Ki (human (es) transporter) [nM]
O=C(C=Cc1ccc(Cl)cc1)OC1CC2(O)CC(OC2=O)C1OC(=O)C=Cc1ccc(Cl)cc1 (stereo not drawn) [3,4-di(4-chlorocinnamoyl)-1,5-quinide] | 172 | 1.3 | 1.12 ± 0.00 | –
O=C(C=Cc1ccc(O)c(O)c1)OC1CC2(O)CC(OC2=O)C1OC(=O)C=Cc1ccc(O)c(O)c1 (stereo not drawn) [3,4-dicaffeoyl-1,5-quinide] | – | 2.4 ± 0.7 | 1.00 ± 0.03 | –
O=C(C=Cc1ccc(O)cc1)OC1CC2(O)CC(OC2=O)C1OC(=O)C=Cc1ccc(O)cc1 (stereo not drawn) [3,4-dicoumaroyl-1,5-quinide] | 233 to 235 | 0.96 ± 0.07 | 1.22 ± 0.11 | –
COc1cc(C=CC(=O)OC2CC3(O)CC(OC3=O)C2OC(=O)C=Cc2ccc(O)c(OC)c2)ccc1O (stereo not drawn) [3,4-diferuloyl-1,5-quinide] | 142 to 144 | 0.96 ± 0.13 | 0.94 ± 0.02 | 1200
